This is an account of results in the SangsterLogP compilation.

This series in a line: from Kabankin, S.; Boldeskul, E.; Trinus, P.; Protsenko, D.; Landau, A. (1982). Physicochemical characteristics, antitumor activity and quantitative structure-activity relations for phosphoric …. Particulars: pH 7.4.
Usually logD stands for the decadic logarithm of the distribution of all forms, ionised or not, between an organic phase and buffer at a given pH. With `C=CCc1cccc(C(=O)NP(=O)(N2CC2)N2CC2)c1`, the logD came to 0.65. `O=C(NP(=O)(N1CC1)N1CC1)c1cc(Br)cc(Br)c1` registered a logD of 1.15.

Compound `O=C(NP(=O)(N1CC1)N1CC1)c1cccc(Br)c1` yielded a logD of 0.88. The value for `O=C(NP(=O)(N1CC1)N1CC1)c1cc(I)cc(I)c1I` was 0.81; that for `COc1ccc(C(=O)NP(=O)(N2CC2)N2CC2)cc1` was -0.02. Take `C=CCc1ccc(C(=O)NP(=O)(N2CC2)N2CC2)cc1`: the logD was found to be 0.69. The value for `O=C(NP(=O)(N1CC1)N1CC1)c1cc(I)cc(I)c1` was 2.52; that for `O=C(NP(=O)(N1CC1)N1CC1)c1ccc(I)cc1` was 1.63; that for `O=C(NP(=O)(N1CC1)N1CC1)c1ccc(Cl)cc1` was 0.46. `COc1cccc(C(=O)NP(=O)(N2CC2)N2CC2)c1` registered a log distribution coefficient (logD) of 0.04. `O=C(NP(=O)(N1CC1)N1CC1)c1ccccc1Br` displayed a logD of 0.45. The value for `O=C(NP(=O)(N1CC1)N1CC1)c1ccc(F)cc1` was 0.13; that for `CCOc1cccc(C(=O)NP(=O)(N2CC2)N2CC2)c1` was 0.42; that for `O=C(NP(=O)(N1CC1)N1CC1)c1cccc(I)c1` was 1.37. The value for `O=C(NP(=O)(N1CC1)N1CC1)c1ccccc1` was -0.15.
